# According to ChEMBL document CHEMBL3217756, “Biological and computational evaluation of an oxadiazole derivative (MD77) as a new lead for direct STAT3 inhibitors” (Medchemcomm, 2012):
# What was measured:
# SNB-75 = assay: Cytotoxicity against human SNB75 cells after 48 hrs by sulforhodamine B assay; type: functional; details: SNB-75, 48 h
# MCF7 = assay: Cytotoxicity against human MCF7 cells after 48 hrs by sulforhodamine B assay; type: functional; details: MCF7, 48 h
# [1] = Cytotoxicity against human OVCAR8 cells after 48 hrs by sulforhodamine B assay; type: functional; details: OVCAR-8, 48 h
# IGROV-1 = assay: Cytotoxicity against human IGROV1 cells after 48 hrs by sulforhodamine B assay; type: functional; details: IGROV-1, 48 h
# SW-620 = assay: Cytotoxicity against human SW620 cells after 48 hrs by sulforhodamine B assay; type: functional; details: SW-620, 48 h
# MOLT-4 = assay: Cytotoxicity against human MOLT4 cells after 48 hrs by sulforhodamine B assay; type: functional; details: MOLT-4, 48 h
# [2] = Cytotoxicity against human Hs 578T cells after 48 hrs by sulforhodamine B assay; type: functional
# LOX IMVI = assay: Cytotoxicity against human LOXIMVI cells after 48 hrs by sulforhodamine B assay; type: functional
# [3] = molecular target: Signal transducer and activator of transcription 3 (Homo sapiens, UniProt P40763); assay: Inhibition of SH2 domain of STAT3 (unknown origin) using (FITC)-GpYLPQTV as substrate preincubated for 15 mins before substrate addition measured after 90 mins by alphascreen based assay
# Signal transducer and activator of transcription 3, sequence (P40763 whole entry, the tested form may be a part): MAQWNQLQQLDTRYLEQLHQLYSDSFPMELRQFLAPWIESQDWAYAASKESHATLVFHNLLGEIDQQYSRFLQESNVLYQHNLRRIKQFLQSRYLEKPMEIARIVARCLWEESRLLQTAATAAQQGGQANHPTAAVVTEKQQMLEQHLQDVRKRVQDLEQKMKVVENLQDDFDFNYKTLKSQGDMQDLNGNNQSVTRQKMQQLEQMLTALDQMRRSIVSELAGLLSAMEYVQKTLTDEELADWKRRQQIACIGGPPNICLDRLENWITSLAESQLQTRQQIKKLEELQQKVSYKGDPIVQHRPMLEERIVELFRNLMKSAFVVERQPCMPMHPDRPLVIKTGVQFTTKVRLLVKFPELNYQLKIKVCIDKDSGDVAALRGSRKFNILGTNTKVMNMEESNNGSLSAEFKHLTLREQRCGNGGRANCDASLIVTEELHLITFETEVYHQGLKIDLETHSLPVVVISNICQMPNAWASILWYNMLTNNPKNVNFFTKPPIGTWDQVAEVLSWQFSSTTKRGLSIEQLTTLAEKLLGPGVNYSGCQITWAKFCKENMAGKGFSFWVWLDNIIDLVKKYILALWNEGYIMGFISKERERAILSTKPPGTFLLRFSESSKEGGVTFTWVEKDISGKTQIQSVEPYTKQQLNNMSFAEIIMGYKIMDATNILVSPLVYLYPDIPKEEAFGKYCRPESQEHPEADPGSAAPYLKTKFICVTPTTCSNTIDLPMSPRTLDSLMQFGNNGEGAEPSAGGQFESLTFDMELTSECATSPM
# NCI-H460 = assay: Cytotoxicity against human NCI-H460 cells after 48 hrs by sulforhodamine B assay; type: functional; details: NCI-H460, 48 h
# [4] = Cytotoxicity against human UACC62 cells after 48 hrs by sulforhodamine B assay; type: functional; details: UACC-62, 48 h
# [5] = Cytotoxicity against human HCT15 cells after 48 hrs by sulforhodamine B assay; type: functional; details: HCT-15, 48 h
# MDA-MB-435 = assay: Cytotoxicity against human MDA-MB-435 cells after 48 hrs by sulforhodamine B assay; type: functional; details: MDA-MB-435, 48 h
# HOP-62 = assay: Cytotoxicity against human HOP62 cells after 48 hrs by sulforhodamine B assay; type: functional; details: HOP-62, 48 h
# [6] = molecular target: Growth factor receptor-bound protein 2 (Homo sapiens, UniProt P62993); assay: Inhibition of SH2 domain of GRB2 (unknown origin) using FITC-PSpYVNVQN as substrate preincubated for 15 mins before substrate addition measured after 90 mins by alphascreen based assay
# Growth factor receptor-bound protein 2, sequence (P62993 whole entry, the tested form may be a part): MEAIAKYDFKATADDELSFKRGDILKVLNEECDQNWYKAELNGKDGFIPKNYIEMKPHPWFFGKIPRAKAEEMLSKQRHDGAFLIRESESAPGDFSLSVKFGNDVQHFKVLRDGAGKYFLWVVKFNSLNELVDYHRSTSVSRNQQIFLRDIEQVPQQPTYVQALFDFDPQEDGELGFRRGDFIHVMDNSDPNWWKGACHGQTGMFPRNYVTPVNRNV
# CAKI-1 = assay: Cytotoxicity against human CAKI-1 cells after 48 hrs by sulforhodamine B assay; type: functional; details: CAKI-1, 48 h
# SNB-19 = assay: Cytotoxicity against human SNB19 cells after 48 hrs by sulforhodamine B assay; type: functional; details: SNB-19, 48 h
# ACHN = assay: Cytotoxicity against human ACHN cells after 48 hrs by sulforhodamine B assay; type: functional
# NCI-H522 = assay: Cytotoxicity against human NCI-H522 cells after 48 hrs by sulforhodamine B assay; type: functional; details: NCI-H522, 48 h
# RXF 393 = assay: Cytotoxicity against human RXF393 cells after 48 hrs by sulforhodamine B assay; type: functional; details: RXF 393, 48 h
# MDA-MB-231 = assay: Cytotoxicity against human MDA-MB-231 cells after 48 hrs by sulforhodamine B assay; type: functional; details: MDA-MB-231, 48 h
# [7] = read-out: LC50 (the source's name)
# [8] = read-out: pLC50 (the source's name) (converted)
smiles,measurement,setting,value
O=C(Nc1nonc1-c1ccc(Cl)cc1)c1ccc(C(F)(F)F)cc1,GI50,SNB-75; read-out: GI50,1790 nM
same,CC50,SNB-75; [7],> 100 µM
same,TGI,SNB-75; read-out: TGI,7.54 µM
same,GI50,SNB-75; read-out: pGI50 (converted),1780 nM
same,CC50,SNB-75; [8],> 100 µM
same,TGI,SNB-75; read-out: pTGI (converted),7.59 µM
same,GI50,MCF7; read-out: GI50,2840 nM
same,CC50,MCF7; [7],> 100 µM
same,TGI,MCF7; read-out: TGI,8.15 µM
same,GI50,MCF7; read-out: pGI50 (converted),2820 nM
same,CC50,MCF7; [8],> 100 µM
same,TGI,MCF7; read-out: pTGI (converted),8.13 µM
same,GI50,[1]; read-out: GI50,2870 nM
same,CC50,[1]; [7],> 100 µM
same,TGI,[1]; read-out: TGI,> 100 µM
same,GI50,[1]; read-out: pGI50 (converted),2880 nM
same,CC50,[1]; [8],> 100 µM
same,TGI,[1]; read-out: pTGI,> 100 µM
same,GI50,IGROV-1; read-out: GI50,4.72 µM
same,LC50,IGROV-1; read-out: LC50,> 100 µM
same,TGI,IGROV-1; read-out: TGI,> 100 µM
same,GI50,IGROV-1; read-out: pGI50 (converted),4.68 µM
same,LC50,IGROV-1; read-out: pLC50 (converted),> 100 µM
same,TGI,IGROV-1; read-out: pTGI,> 100 µM
same,GI50,SW-620; read-out: GI50,2820 nM
same,CC50,SW-620; [7],> 100 µM
same,TGI,SW-620; read-out: TGI,> 100 µM
same,GI50,SW-620; read-out: pGI50 (converted),2820 nM
same,CC50,SW-620; [8],> 100 µM
same,TGI,SW-620; read-out: pTGI,> 100 µM
same,GI50,MOLT-4; read-out: GI50,1670 nM
same,CC50,MOLT-4; [7],> 100 µM
same,TGI,MOLT-4; read-out: TGI,6.05 µM
same,GI50,MOLT-4; read-out: pGI50 (converted),1660 nM
same,CC50,MOLT-4; [8],> 100 µM
same,TGI,MOLT-4; read-out: pTGI (converted),6.03 µM
same,GI50,[2]; read-out: GI50,2530 nM
same,CC50,[2]; [7],> 100 µM
same,TGI,[2]; read-out: TGI,> 100 µM
same,GI50,[2]; read-out: pGI50 (converted),2510 nM
same,CC50,[2]; [8],> 100 µM
same,TGI,[2]; read-out: pTGI,> 100 µM
same,GI50,LOX IMVI; read-out: GI50,872 nM
same,LC50,LOX IMVI; read-out: LC50,> 100 µM
same,TGI,LOX IMVI; read-out: TGI,57 µM
same,GI50,LOX IMVI; read-out: pGI50 (converted),871 nM
same,LC50,LOX IMVI; read-out: pLC50 (converted),> 100 µM
same,TGI,LOX IMVI; read-out: pTGI (converted),57.5 µM
same,IC50,[3],17.7 µM
same,inhibition,[3],Dose-dependent effect
same,GI50,NCI-H460; read-out: GI50,629 nM
same,CC50,NCI-H460; [7],> 100 µM
same,GI50,NCI-H460; read-out: pGI50 (converted),631 nM
same,CC50,NCI-H460; [8],> 100 µM
same,GI50,[4]; read-out: GI50,2110 nM
same,CC50,[4]; [7],> 100 µM
same,TGI,[4]; read-out: TGI,6.83 µM
same,GI50,[4]; read-out: pGI50 (converted),2090 nM
same,CC50,[4]; [8],> 100 µM
same,TGI,[4]; read-out: pTGI (converted),6.76 µM
same,GI50,[5]; read-out: GI50,3.5 µM
same,CC50,[5]; [7],> 100 µM
same,TGI,[5]; read-out: TGI,> 100 µM
same,GI50,[5]; read-out: pGI50 (converted),3.47 µM
same,CC50,[5]; [8],> 100 µM
same,TGI,[5]; read-out: pTGI,> 100 µM
same,GI50,MDA-MB-435; read-out: GI50,2150 nM
same,LC50,MDA-MB-435; read-out: LC50,> 100 µM
same,TGI,MDA-MB-435; read-out: TGI,> 100 µM
same,GI50,MDA-MB-435; read-out: pGI50 (converted),2140 nM
same,LC50,MDA-MB-435; read-out: pLC50 (converted),> 100 µM
same,TGI,MDA-MB-435; read-out: pTGI,> 100 µM
same,GI50,HOP-62; read-out: GI50,2930 nM
same,CC50,HOP-62; [7],> 100 µM
same,TGI,HOP-62; read-out: TGI,8.74 µM
same,GI50,HOP-62; read-out: pGI50 (converted),2950 nM
same,CC50,HOP-62; [8],> 100 µM
same,TGI,HOP-62; read-out: pTGI (converted),8.71 µM
same,IC50,[6],> 100 µM
same,GI50,CAKI-1; read-out: GI50,1900 nM
same,CC50,CAKI-1; [7],> 100 µM
same,TGI,CAKI-1; read-out: TGI,7.59 µM
same,GI50,CAKI-1; read-out: pGI50 (converted),1910 nM
same,CC50,CAKI-1; [8],> 100 µM
same,TGI,CAKI-1; read-out: pTGI (converted),7.59 µM
same,GI50,SNB-19; read-out: GI50,3.38 µM
same,CC50,SNB-19; [7],> 100 µM
same,TGI,SNB-19; read-out: TGI,> 100 µM
same,GI50,SNB-19; read-out: pGI50 (converted),3.39 µM
same,CC50,SNB-19; [8],> 100 µM
same,TGI,SNB-19; read-out: pTGI,> 100 µM
same,GI50,ACHN; read-out: GI50,3.1 µM
same,CC50,ACHN; [7],> 100 µM
same,TGI,ACHN; read-out: TGI,8.74 µM
same,GI50,ACHN; read-out: pGI50 (converted),3.09 µM
same,CC50,ACHN; [8],> 100 µM
same,TGI,ACHN; read-out: pTGI (converted),8.71 µM
same,GI50,NCI-H522; read-out: GI50,2070 nM
same,CC50,NCI-H522; [7],> 100 µM
same,TGI,NCI-H522; read-out: TGI,7.12 µM
same,GI50,NCI-H522; read-out: pGI50 (converted),2090 nM
same,CC50,NCI-H522; [8],> 100 µM
same,TGI,NCI-H522; read-out: pTGI (converted),7.08 µM
same,GI50,RXF 393; read-out: GI50,2210 nM
same,CC50,RXF 393; [7],> 100 µM
same,TGI,RXF 393; read-out: TGI,6.07 µM
same,GI50,RXF 393; read-out: pGI50 (converted),2240 nM
same,CC50,RXF 393; [8],> 100 µM
same,TGI,RXF 393; read-out: pTGI (converted),6.03 µM
same,GI50,MDA-MB-231; read-out: GI50,2790 nM
same,LC50,MDA-MB-231; read-out: LC50,> 100 µM
same,TGI,MDA-MB-231; read-out: TGI,7.59 µM
same,GI50,MDA-MB-231; read-out: pGI50 (converted),2820 nM
same,LC50,MDA-MB-231; read-out: pLC50 (converted),> 100 µM
same,TGI,MDA-MB-231; read-out: pTGI (converted),7.59 µM
